This is an account of results in patent publication US20250387371A1, “COMPOSITIONS AND FORMULATION METHODS FOR SUSTAINED LOCAL RELEASE OF ANTIFIBROTICS” (THE HOPKINS UNIVERISTY, priority 2022, published 2025).

Series [1] has as its system bleomycin-induced mouse skin fibrosis model. Put plainly: Bleomycin-induced skin fibrosis model. Format: in vivo. As to conditions: 4 weeks. The method, then:
There is a paucity of animal models of GI tract fibrosis/strictures. Li et al., 2021. To obtain preliminary evidence regarding efficacy of Sul-NC as antifibrotic in vivo, a well-described and reproducible bleomycin-induced rodent skin fibrosis model was used. Yamamoto et al., 1999. To induce fibrosis, bleomycin was injected in mouse skin at five spots within a 1×1 cm region on the back every other day for four weeks (FIG. 3), as previously described. Yamamoto et al., 1999. […] In addition, the Masson's Trichrome staining confirmed that the thickness of the dermis was due to deposition of collagen and other ECM proteins (blue staining in the figure). Of note, there was a striking difference between the dose and frequency of administration when comparing pirfenidone (daily dosing, total dose 2,800 mg/kg) vs Sul-NC (once weekly, total dose 200 mg/kg).
5-8 week old male C57BL/6J mice were utilized for bleomycin induced skin fibrosis model. The upper back was shaved, and 100 μL bleomycin (0.5 mg/ml in PBS) was injected subcutaneously every other day into one of five sectors in a defined 1-cm^2 area (see FIG. 3). […] Five representative images for each mouse were taken to quantify skin dermal thickness. For each image, five different areas were measured by a masked observer with image J Fiji (NIH, Bethesda, MD). Data were analyzed with GraphPad Prism 9 (San Diego, CA, USA).

The next series deals with LX2 cells. Put plainly: RT-PCR of α-SMA (ACTA2) expression in activated LX2 cells. Format: cell-based, human. Particulars: activated LX-2. The method, then: (§1) RNA was extracted using TRIzol Reagent as previously described. Li et al., 2017. RNAs were reverse transcribed into cDNA with ReverAid First Strand cDNA synthesis kit. SYBR Green PCR Master Mix kit was utilized for the real time PCR using a QuantStudio 3 PCR machine (Applied Biosystems, Waltham, MA). Primers used are detailed in Table 6. Each reaction was performed in triplicate for each primer with a no-template negative control. QuantStudio Design and Analysis Software 1.5.2 was used to analyze the data using the ΔΔCT method.

In series [2] the test system is CCD-18Co cells. As to the kind of experiment: RT-PCR of α-SMA (ACTA2) expression in activated CCD-18Co cells. It counts as cell-based, human. The method, then:
as §1

Series [3] has as its system small intestine fibrosis mouse model. As to the kind of experiment: Mouse intestine transplant fibrosis model. It counts as in vivo. As to conditions: three times daily oral 100 mg/kg for 7 days. Here is the method:
An intestine transplantation model (FIG. 6) that was previously used to validate the antifibrotic efficacy of oral pirfenidone was employed. Meier et al., 2016. Sul-NC at a dose of 50 mg/kg or 150 mg/kg was given as a single injection at the site of the transplant and compared to oral pirfenidone at the dose previously described to be effective in the model, three times daily oral dosing with 100 mg/kg. […] Again, there was a striking difference between the dose and frequency of administration when comparing pirfenidone (three times daily dosing, total dose 2,100 mg/kg) vs Sul-NC (single dose, 50 mg/kg).
5-8 week old male C57BL/6J mice were utilized in an intestine transplantation model with minor modifications (FIG. 6). Meier et al., 2016. Briefly, a 6-cm segment of small intestine proximal to the ileocecal valve was excised from a donor mouse in a sterilized biosafety cabinet. The tissue was washed with cold saline 3 times, and carefully cut into 1 cm segments that were placed in a petri dish with cold saline. The back neck of the recipient mice was shaved. […] Four representative images were taken for each tissue to quantify the collagen thickness. For each image, 10 different areas were measured by a masked observer with image J Fiji (NIH, Bethesda, MD). Data were analyzed with GraphPad Prism 9 (San Diego, CA, USA).

Series [4] has as its system human primary colonic fibroblasts (CCD-18Co) activated with TGF-β. Put plainly: High throughput microscopy-based drug screening (α-SMA and COL1A1 immunocytochemistry). It counts as cell-based. As to conditions: TGF-β-activated CCD-18Co, 4 mM. The text has this:
To identify potential antifibrotic agents, a high-throughput microscope-based drug screening approach using human primary colonic fibroblasts (CCD-18Co) activated with transforming growth factor-β (TGF-β) was used. A panel of 1,586 FDA-approved small molecule drugs were then screened for their ability to reduce expression of α-SMA and type 1 collagen (COL1A1) as assessed by fluorescent immunocytochemistry. Based on its known antifibrotic effects, pirfenidone was included in this screen and found effective at a dose of 4 mM (FIG. 1A).
Human primary colonic fibroblasts (CCD-18Co) were seeded in 96 well flat bottom plate. Twenty-four hours later, cells were washed and starved with alpha-MEM medium without FBS for 24 h. The cells were then washed and the media was replaced with alpha-MEM supplemented with 10% FBS containing 5 ng/ml TGF-β and activated for 48 h. The cells were then washed again and fresh medium containing 5 ng/ml TGF-β and 10 μM of a drug from a library of 1,586 FDA approved small molecules was applied to the cells. After 4 days, the cells were fixed with 10% neutral formalin for 15 min and permeabilized with 0.5% Triton X-100 in PBS. […] Images were analyzed with Image J2 Fiji (NIH, Bethesda, MD) to determine the drug treatment efficacy as assessed by reduction in the intensity of α-SMA and collagen staining per cell. […]

A further series in a line: in vivo. Particulars: both, C57BL/6J, mouse, sc.
The test system of series [5] is human hepatic stellate cells (LX2). As to the kind of experiment: Western blot of α-SMA and COL1A1 in activated LX2 cells. Particulars: activated LX2, 10 μM, 96 h. Format: cell-based. The method, then:
(§2) LX2 and CCD-18Co were seeded in 6 well plate. Twenty-four hours later, cells were washed and starved with Alpha MEM medium without FBS for 24 h. The cells were then washed and the media was replaced with Alpha MEM supplemented with 10% FBS containing 5 ng/ml TGF-β and activated for 48 h. […] The cells were then washed three times with cold PBS and treated with protein lysis RIPA buffer with complete protease inhibitor cocktail. Protein concentration was determined with Pierce BCA protein Assay Kit. 20 μg of total protein lysate from each treatment group was loaded into each well of a Mini-Protean TGX gel (4-15%), and electrophoresis was performed using 1× Tris/Glycine/SDS Buffer. Proteins were then transferred to nitrocellulose membranes using 1× Tris/Glycine with methanol. Membranes were blocked with Intercept (TBS) blocking buffer for 1 h at room temperature and then incubated with anti-α-SMA antibody (1:1000), and COL1A1 antibody (1:1000) at 4° C. overnight. Membranes were washed with TBS-0.1% Tween three times for 10 min each, and then incubated in IRDye-Secondary antibodies (1:10,000) at room temperature for 1 h. The membranes were then washed with TBS-0.1% Tween three times for 10 min each and rinsed with 1×TBS to remove residual Tween20. Membranes were then scanned with an Odyssey Image System (Li-Cor, Lincoln, NE, USA).
(In general: A western blot detects proteins with antibodies after separation by electrophoresis.)

The conditions of series [6]: mouse, in vivo, sc, 50 mg/kg. The method, then: Each treatment group contain 3-9 mice. […] MTD was injected and blood were taken for liver and kidney function test (Table 5).
For series [7] the following is noted: topical dosing; cited from earlier work.
A further series is described as follows: physchem. Format: physicochemical.
Series [8] in a line: In vitro drug release under accelerated conditions (rapid equilibrium dialysis). It counts as physicochemical. Here is the method:
Sul-NC (5 mg/mL, 50 μL) were placed in a rapid equilibrium dialysis s(RED) device with an 8 kDa molecular weight cutoff (n=3). The outer reservoir was filled with 1 mL of 0.5% Tween 80 in phosphate buffered saline (PBS-T) solution. The samples were incubated on an orbital shaker with temperature control at 37° C. and 300 rpm. Every 24 h, 1 mL of the solution was collected and replenished with fresh 1 mL PBS-T solution. […] Mobile phase A was water containing 0.1% trifluoroacetic acid (TFA) and mobile phase B was acetonitrile containing 0.1% TFA. The isocratic flow was composed 70% of mobile phase A and 30% mobile phase B at 1 mL/min flow rate for 10 min. […] The drug amount was quantified and used to calculate the accumulation percentage. The release curves were plotted with GraphPad Prism 9 (San Diego, CA).
(Equilibrium dialysis compares concentrations on both sides of a semipermeable membrane.)

For series [9], the system named is CCD-18Co cells. As to the kind of experiment: Western blot of α-SMA and COL1A1 in activated CCD-18Co cells. Format: cell-based, human. As to conditions: 10 μM, 96 h. Here is the method:
as §2

The next series deals with C57BL/6J mice. As to conditions: both, mouse, in vivo; for Survival: ip.

In brackets after ≈: the same amount, converted by molar mass. Where two headings read alike, the source gives them in different places.

On to `Cc1ccc(=O)n(-c2ccccc2)c1` [pirfenidone], for which, in series [1] (daily oral 100 mg/kg), the “thickness of the dermis compared to Vehicle” value is “significantly reduced”. Moreover, the “concentration below which no effect on ACTA2 expression was shown” value in the series on LX2 cells and in the series with CCD-18Co cells [2] was 4 mM each time. In addition, in [3], the collagen layer thickness is recorded as 9.1±0.3 μm. Also, in [4], the “decrease in the staining of α-SMA and COL1A1” value was “effective”.

In “in vivo”, `Clc1ccc(CSC(Cn2ccnc2)c2ccc(Cl)cc2Cl)cc1` (centres unmarked) [sulconazole] showed an MTD of 50 mg/kg. Moreover, the “thickness of the dermis compared to Vehicle” value in series [1] (10-mg/kg IP every other day) was “significantly reduced”. Further, the “protein production of α-SMA and COL1A1 (Western blot)” value (in series [5]; with CCD-18Co cells [9]) was “significantly reduced” each time. Besides, the “blood level of ALT and BUN” value in series [6] is reported as “increased”. In addition, the “elimination via the feces” value in series [7] is given as “one of the primary clearance routes”. Also, in “physchem”, the solubility (usually the dissolved amount per volume that the medium holds) was 240 µg/mL (≈ 603 µM). Further, the “passage of free drug through the dialysis membrane” value in series [8] was “not impeded by the dialysis membrane”. Further, the “dose resulting in reduced survival” value with C57BL/6J mice was 50 mg/kg. The Survival with C57BL/6J mice (15 mg/kg), in the series on C57BL/6J mice (30 mg/kg) and in the series on C57BL/6J mice (40 mg/kg) was 5/5 (100%) each time.
